Source: patent publication US6252079A, “Intermediates in the synthesis of camptothecin and related compounds and synthesis thereof” (University of Pittsburgh, priority 1997, dated 2001)
Where two headings read alike, the source gives them in different places.

What was measured:
[1] = tested on: colon cancer xenografts; details: dose levels that were well tolerated; cited from earlier work
[2] = tested on: HL-60 human promyelocytic leukemic cells; test: Cytotoxicity, HL-60 cells; assay type: cell-based
Procedure: Cytotoxicity and Topoisomerase I-mediated effect studies of compounds 22d and (20S)-camptothecin were performed at the Laboratory for Bioorganic Chemistry, Memorial Sloan-Kettering Institute Cancer Center, New York with the following results:
1. IC50 (HL-60 human promyelocytic leukemic cells, μmol): 0.004 (22d); 0.004 (CPT).

[3] = tested on: 833 K human teratocarcinoma cells; test: Cytotoxicity, 833 K cells; assay type: cell-based; details: read-out: IC50 (833 K human teratocarcinoma cells)
Procedure: Cytotoxicity and Topoisomerase I-mediated effect studies of compounds 22d and (20S)-camptothecin were performed at the Laboratory for Bioorganic Chemistry, Memorial Sloan-Kettering Institute Cancer Center, New York with the following results: […]

[4] = target: T1, Topoisomerase I (Homo sapiens, UniProt P11387); test: Inhibition of Topoisomerase I-mediated relaxation of supercoiled DNA; assay type: biochemical; details: 22d compared with CPT
T1 construct: supercoiled DNA relaxation and DNA cleavage assays
T1 sequence (P11387 2-765): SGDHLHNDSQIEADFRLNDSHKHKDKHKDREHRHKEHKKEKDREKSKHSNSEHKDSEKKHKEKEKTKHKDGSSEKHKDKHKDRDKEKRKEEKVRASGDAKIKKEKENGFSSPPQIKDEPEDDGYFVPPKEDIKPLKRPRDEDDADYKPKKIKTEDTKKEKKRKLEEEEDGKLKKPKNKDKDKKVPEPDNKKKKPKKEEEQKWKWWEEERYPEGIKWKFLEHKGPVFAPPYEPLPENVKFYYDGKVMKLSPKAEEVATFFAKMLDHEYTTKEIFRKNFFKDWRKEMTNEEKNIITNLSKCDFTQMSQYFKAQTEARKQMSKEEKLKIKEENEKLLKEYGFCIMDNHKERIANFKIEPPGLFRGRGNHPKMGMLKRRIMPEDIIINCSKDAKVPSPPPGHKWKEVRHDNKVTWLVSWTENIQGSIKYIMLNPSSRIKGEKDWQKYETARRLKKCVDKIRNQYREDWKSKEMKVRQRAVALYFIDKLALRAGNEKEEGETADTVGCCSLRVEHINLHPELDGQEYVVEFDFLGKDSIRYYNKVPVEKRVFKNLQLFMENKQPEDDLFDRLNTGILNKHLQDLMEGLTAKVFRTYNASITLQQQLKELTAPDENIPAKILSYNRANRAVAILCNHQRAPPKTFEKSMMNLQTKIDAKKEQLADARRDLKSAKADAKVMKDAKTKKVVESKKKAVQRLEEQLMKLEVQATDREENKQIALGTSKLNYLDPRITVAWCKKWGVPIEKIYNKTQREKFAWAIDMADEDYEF

[5] = target: T1, Topoisomerase I; test: Induction of Topoisomerase I-mediated DNA cleavage; assay type: biochemical; details: 22d compared with CPT
[6] = tested on: thirteen human xenograft lines, including colon, lung, breast, stomach, ovary, and malignant melanoma; details: 20% interlipid formulation, intramuscularly and orally, non-toxic doses; cited from earlier work

Row | Structure (SMILES) | efficacy in mice carrying colon cancer xenografts [1] | IC50 ([2]; HL-60, read-out: IC50 (HL-60 human promyelocytic leukemic cells)) [nM] | IC50 ([3]; 833K) [nM] | potency in the inhibition of Topoisomerase I-mediated relaxation of supercoiled DNA [4] | potency in the induction of Topoisomerase I-mediated DNA cleavage [5] | effect on growth of human xenograft lines [6] | IC50 ([2]; HL-60 cells, cytotoxicity, read-out: IC50 (HL-60 human promyelocytic leukemic cells)) [nM] | IC50 ([3]; 833 K cells, cytotoxicity) [nM]
1 | CCC1(O)C(=O)OCc2c1cc1n(c2=O)Cc2cc3c(N)cccc3nc2-1 (racemic) [Racemic 9-aminocamptothecin, 9-aminocamptothecin] | very effective | – | – | – | – | – | – | –
2 | CC[C@@]1(O)C(=O)OCc2c1cc1n(c2=O)Cc2cc3ccccc3nc2-1 [CPT, (20S)-camptothecin] | – | 4 | 5.5 | Same potency | Same potency | suppressed growth and induced regression of cancer in thirteen human xenograft lines | – | –
3 | CC[C@@]1(O)C(=O)OCc2c1cc1n(c2=O)Cc2c-1nc1ccccc1c2[Si](C)(C)C [Compound 22d, (20S)-7-Trimethylsilylcamptothecin] | – | – | – | Same potency | Same potency | – | 4 | 4.4
